From PMC4084896 (PLoS ONE, 2014)

Assays:
AhR = biological target: T1, AhR (Mus musculus, UniProt P30561); test: EMSA with nuclear extracts from Hepa-1c1c7 cells (AhR-ARNT-DRE complex); type: cell-based; conditions: Hepa-1c1c7 nuclear extracts, 50 µM, 2 h
T1 construct: endogenous in cells; host or cells: mouse hepatoma Hepa-1c1c7 cells (living cells treated 2 h, then nuclear extracts made)
Procedure: Electrophoretic mobility shift assay was performed in guinea pig cytosol and nuclear extract from mouse hepatoma cells. Hepa-1c1c7 cells were incubated for 2 h with tested compounds. Nuclear extracts procedure and EMSA analysis was performed as previously described (Soshilov & Denison; 2014). Guinea pig hepatic cytosol (8 mg/mL in HEDG) was incubated for 2 h in a room temperature water bath with tested compounds. An aliquot of the reaction was mixed with poly[dI•dC] and [^32P]-DRE (100.000 cpm), and AHR:DRE:[^32P]DRE complexes were resolved by gel retardation analysis, visualized by autoradiography and quantified by phosphorimager analysis (FujiFilm) of the dried gels.
We carried out the electrophoretic mobility shift assay (EMSA) to reveal whether effects of KET on AhR-CYP1A pathway involve transformation of AhR to DNA binding form, and whether these effects are enantiospecific. For this purpose, EMSA was performed in two experimental systems: (i) Hepatic guinea pig cytosol was treated for 2 hours with DMSO, 20 nM TCDD, (+)-KET, (−)-KET and commercial rac-KET (from Sigma) at 10 µM, 30 µM and 50 µM. All forms of KET transformed AhR to DNA binding form, but the activation was very weak and not statistically above background. There was a slightly stronger effect of (+)-KET and rac-KET as compared to (−)-KET, but the difference was not significant (Figure 4A). (ii) Since we obtained only weak signals in guinea pig liver cytosols, we also analyzed nuclear extracts from mouse hepatoma Hepa-1c1c7 cells treated for 2 hours with DMSO, TCDD (10 nM), (+)-KET (50 µM), (−)-KET (50 µM), commercial rac-KET (Sigma; 50 µM) or an equimolar mix of (+)/(−) enantiomers (50 µM total). […] The effects of (−)-KET were slightly stronger as compared to (+)-KET. […] In addition, we observed formation of the second band with lower molecular weight than AhR-ARNT-DRE, by purified KET enantiomers but not by TCDD and commercial KET.

[1] = biological target: T2, aryl hydrocarbon receptor AhR (Homo sapiens, UniProt P35869); test: AhR gene reporter assay in AZ-AHR cells, antagonist mode (TCDD 5 nM); type: cell-based; conditions: 24 h, in the presence of TCDD 5 nM
T2 construct: endogenous in cells; host or cells: AZ-AHR (stably transfected reporter line derived from HepG2)
T2 sequence (P35869 11-848): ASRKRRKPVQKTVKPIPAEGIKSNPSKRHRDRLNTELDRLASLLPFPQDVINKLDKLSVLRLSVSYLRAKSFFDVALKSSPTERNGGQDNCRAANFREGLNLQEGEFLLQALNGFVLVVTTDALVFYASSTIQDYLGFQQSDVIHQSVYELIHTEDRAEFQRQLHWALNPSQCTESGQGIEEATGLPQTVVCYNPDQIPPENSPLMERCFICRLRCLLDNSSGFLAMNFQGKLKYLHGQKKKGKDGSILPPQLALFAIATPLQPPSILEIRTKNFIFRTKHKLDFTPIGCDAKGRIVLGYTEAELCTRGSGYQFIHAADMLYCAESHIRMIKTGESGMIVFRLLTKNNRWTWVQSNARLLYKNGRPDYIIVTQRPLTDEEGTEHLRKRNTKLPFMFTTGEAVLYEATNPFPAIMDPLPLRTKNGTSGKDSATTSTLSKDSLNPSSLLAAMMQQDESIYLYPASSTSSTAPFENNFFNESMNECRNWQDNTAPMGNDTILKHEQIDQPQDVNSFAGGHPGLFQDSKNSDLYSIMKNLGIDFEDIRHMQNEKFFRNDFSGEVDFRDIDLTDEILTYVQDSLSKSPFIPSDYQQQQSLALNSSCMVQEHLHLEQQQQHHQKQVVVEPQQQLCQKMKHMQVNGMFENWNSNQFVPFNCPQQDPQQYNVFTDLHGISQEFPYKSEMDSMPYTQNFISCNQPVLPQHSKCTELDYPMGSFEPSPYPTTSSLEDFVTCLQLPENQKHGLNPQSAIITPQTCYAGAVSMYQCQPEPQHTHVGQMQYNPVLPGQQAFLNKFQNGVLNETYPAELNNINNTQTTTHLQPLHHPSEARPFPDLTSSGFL
Description: A stably transfected gene reporter cell line AZ-AHR, derived from human hepatoma HepG2 cells transfected with a construct containing several AhR binding sites upstream of a luciferase reporter gene, was used for assessment of AhR transcriptional activity. A stably transfected gene reporter cell line AZ-GR, derived from human cervix carcinoma HeLa cells transfected with a construct containing several GR response elements upstream of a luciferase reporter gene, was used for assessment of GR transcriptional activity. Cells were incubated for 24 h with tested compounds and/or vehicle (DMSO; 0.1% v/v), in the presence or absence of TCDD (5 nM; AZ-AHR cells) or DEX (100 nM; AZ-GR cells). After the treatments, cells were lysed and luciferase activity was measured. In parallel, cell viability was determined by conventional MTT test.
Gene reporter assays were performed in two different experimental layouts. In agonist mode, cells were treated with increasing concentrations of tested compounds, and the half-maximal effective concentrations (EC50) were calculated.

[2] = tested on: tyrosine aminotransferase (TAT) mRNA; test: TAT mRNA in HepG2 cells (qRT-PCR); type: cell-based, human; conditions: HepG2, 1, 30, 50 µM, 24 h

T1 sequence (P30561 10-805 limits assumed): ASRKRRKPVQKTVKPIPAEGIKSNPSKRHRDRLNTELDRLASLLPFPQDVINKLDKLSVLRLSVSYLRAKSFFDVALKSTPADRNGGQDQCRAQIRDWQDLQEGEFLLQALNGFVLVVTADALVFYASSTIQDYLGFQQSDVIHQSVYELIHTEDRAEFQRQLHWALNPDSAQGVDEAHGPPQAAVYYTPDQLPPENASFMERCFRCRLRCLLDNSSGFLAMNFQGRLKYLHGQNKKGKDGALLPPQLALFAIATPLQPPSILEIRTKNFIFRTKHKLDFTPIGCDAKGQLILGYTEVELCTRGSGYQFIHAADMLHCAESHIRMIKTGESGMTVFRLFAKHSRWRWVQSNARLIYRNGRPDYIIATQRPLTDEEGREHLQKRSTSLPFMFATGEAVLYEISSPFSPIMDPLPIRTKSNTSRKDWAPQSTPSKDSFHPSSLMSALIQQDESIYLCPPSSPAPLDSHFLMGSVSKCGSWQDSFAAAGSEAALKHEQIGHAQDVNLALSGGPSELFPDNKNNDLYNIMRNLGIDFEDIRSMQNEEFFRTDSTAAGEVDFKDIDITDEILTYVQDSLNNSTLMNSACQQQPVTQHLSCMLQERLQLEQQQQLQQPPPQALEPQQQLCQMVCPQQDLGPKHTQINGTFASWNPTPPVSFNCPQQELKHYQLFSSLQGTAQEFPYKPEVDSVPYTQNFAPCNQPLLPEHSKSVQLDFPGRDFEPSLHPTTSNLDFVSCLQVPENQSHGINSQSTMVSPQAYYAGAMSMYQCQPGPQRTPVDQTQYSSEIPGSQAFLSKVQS
T1 sequence (P53762 whole entry partner): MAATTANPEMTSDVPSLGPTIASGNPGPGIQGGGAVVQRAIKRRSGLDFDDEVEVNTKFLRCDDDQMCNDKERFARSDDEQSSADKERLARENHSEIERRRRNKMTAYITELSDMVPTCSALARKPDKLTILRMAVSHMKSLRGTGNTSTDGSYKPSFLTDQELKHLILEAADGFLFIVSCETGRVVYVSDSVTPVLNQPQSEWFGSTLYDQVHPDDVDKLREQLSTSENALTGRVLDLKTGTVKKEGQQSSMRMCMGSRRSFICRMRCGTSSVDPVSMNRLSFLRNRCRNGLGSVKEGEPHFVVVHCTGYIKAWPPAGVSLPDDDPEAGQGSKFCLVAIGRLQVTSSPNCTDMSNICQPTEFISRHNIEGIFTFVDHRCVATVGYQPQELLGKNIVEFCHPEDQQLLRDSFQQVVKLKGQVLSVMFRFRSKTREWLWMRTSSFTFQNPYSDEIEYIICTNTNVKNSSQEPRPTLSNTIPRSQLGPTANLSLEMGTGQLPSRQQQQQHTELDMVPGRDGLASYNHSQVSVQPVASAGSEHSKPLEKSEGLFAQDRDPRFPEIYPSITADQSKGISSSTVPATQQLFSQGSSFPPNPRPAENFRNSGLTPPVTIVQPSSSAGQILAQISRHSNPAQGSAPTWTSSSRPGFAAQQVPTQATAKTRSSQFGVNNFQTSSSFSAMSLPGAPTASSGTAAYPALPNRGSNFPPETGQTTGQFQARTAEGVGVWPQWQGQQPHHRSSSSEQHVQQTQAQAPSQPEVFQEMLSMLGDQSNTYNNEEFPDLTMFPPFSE

Compound: CC(=O)N1CCN(c2ccc(OCC3COC(Cn4ccnc4)(c4ccc(Cl)cc4Cl)O3)cc2)CC1 (racemic) [rac-KET, ketoconazole]
- formation of AhR-ARNT-DRE complex, % of TCDD effects (AhR; TCDD 10 nM): approx. 60%
- IC50 [1]: 31.1 ± 3.7 µM
- TAT mRNA induction (in words) [2]: strong, concentration-dependent induction

Compound: CC(=O)N1CCN(c2ccc(OC[C@H]3CO[C@](Cn4ccnc4)(c4ccc(Cl)cc4Cl)O3)cc2)CC1 [(+)-KET, (2R,4S)-(+)-KET]
- transformation of AhR to DNA binding form (in words) (AhR): only weakly transformed
- IC50 [1]: 22.3 ± 6.3 µM
- TAT mRNA induction (in words) [2]: strong, concentration-dependent induction
